Assay results from patent US12065443B2, “Compounds and pharmaceutical compositions thereof for the treatment of diseases” (priority 2017, dated 2024).
Read-outs that look alike come from different tables or passages of the source.

Key:
SIK1 = target: T1, SIK1 (Homo sapiens, UniProt P57059); assay: biochemical
T1 construct: purchased Carna Biosciences 02-131
Procedure, shortened: (§1)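 Radiometric assay: SIK1, SIK2 or SIK3 phosphorylates AMARA peptide using unlabelled plus [^33P]-γ-ATP, reaction started by ATP addition. Stopped with 150 mM phosphoric acid, filter-harvested and washed; incorporated ^33P counted by scintillation. Controls: 1% DMSO and 10 μM staurosporine final.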

SIK2 = target: T2, SIK2 (Homo sapiens, UniProt Q9H0K1); assay: biochemical; conditions: 33P radioactive SIK kinase assay, AMARA peptide, 10 μM ATP
T2 construct: purchased ThermoFisher Scientific PV4792
T2 sequence (Q9H0K1 whole entry): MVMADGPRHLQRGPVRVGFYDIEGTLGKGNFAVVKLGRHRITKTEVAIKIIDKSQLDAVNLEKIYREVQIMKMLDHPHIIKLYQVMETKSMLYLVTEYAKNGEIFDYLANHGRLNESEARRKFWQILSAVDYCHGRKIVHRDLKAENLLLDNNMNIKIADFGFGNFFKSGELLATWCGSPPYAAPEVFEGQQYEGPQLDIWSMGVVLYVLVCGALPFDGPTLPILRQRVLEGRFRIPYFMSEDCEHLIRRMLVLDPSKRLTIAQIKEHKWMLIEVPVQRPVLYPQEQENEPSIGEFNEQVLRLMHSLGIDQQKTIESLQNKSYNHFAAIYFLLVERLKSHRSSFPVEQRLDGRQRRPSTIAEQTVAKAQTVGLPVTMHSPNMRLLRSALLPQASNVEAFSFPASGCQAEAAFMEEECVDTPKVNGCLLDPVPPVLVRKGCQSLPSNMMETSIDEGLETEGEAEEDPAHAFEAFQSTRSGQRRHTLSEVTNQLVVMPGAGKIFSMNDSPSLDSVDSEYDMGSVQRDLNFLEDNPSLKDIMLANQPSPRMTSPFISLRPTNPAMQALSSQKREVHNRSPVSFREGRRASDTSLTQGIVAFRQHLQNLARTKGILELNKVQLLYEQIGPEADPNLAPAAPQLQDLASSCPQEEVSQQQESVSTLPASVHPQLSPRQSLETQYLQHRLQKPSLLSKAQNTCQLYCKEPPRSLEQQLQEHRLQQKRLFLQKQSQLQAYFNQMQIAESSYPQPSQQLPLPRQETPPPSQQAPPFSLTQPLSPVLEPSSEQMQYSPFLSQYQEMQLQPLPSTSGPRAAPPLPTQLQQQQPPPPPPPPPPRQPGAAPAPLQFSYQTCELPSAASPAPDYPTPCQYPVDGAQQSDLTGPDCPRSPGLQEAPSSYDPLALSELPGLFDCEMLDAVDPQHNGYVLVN
Procedure, shortened: as §1

SIK3 = target: T3, SIK3 (Homo sapiens, UniProt Q9Y2K2); assay: biochemical
T3 construct: purchased SignalChem S12-11G-100
T3 sequence (Q9Y2K2 whole entry): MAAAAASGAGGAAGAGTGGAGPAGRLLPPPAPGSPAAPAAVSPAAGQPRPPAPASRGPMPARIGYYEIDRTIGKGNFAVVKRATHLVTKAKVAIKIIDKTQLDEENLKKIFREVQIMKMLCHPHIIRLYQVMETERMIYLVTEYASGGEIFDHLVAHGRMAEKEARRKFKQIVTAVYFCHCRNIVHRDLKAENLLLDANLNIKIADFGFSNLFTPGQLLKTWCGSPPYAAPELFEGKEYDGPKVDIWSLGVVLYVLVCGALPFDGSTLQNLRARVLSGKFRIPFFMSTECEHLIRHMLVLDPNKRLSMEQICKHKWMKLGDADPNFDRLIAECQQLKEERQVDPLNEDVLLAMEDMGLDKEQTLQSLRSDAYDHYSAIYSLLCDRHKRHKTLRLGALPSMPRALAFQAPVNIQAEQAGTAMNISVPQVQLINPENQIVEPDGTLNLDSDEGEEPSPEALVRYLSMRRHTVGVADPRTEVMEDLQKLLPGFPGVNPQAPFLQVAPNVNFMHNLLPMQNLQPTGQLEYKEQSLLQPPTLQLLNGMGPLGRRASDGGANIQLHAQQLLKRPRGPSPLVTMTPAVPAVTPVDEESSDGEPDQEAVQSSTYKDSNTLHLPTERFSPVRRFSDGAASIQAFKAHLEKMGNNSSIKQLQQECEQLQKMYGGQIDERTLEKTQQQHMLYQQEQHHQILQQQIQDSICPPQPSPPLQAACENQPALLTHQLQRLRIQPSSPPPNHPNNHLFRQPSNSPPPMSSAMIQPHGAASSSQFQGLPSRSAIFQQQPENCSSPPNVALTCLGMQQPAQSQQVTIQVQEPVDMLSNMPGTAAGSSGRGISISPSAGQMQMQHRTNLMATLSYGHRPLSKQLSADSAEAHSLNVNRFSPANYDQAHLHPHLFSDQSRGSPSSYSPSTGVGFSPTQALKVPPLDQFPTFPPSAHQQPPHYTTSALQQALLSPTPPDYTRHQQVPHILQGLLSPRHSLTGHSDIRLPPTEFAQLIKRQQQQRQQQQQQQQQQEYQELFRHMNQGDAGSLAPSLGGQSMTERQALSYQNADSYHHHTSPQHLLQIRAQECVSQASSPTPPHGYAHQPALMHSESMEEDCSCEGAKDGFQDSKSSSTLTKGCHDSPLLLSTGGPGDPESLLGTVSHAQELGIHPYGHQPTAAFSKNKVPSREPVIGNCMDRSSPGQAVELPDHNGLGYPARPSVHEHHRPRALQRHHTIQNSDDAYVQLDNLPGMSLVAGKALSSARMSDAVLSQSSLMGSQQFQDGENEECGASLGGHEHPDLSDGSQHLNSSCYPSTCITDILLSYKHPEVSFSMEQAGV
Procedure, shortened: as §1

[1] = tested on: LPS driven TNFα secretion in Peripheral Blood Mononuclear Cells (PBMC); assay: cells; format: cell-based; conditions: Homo sapiens, LPS 1 ng/mL, supernatant after 18-20 h, ELISA
Method: This assay measures the inhibition of LPS driven TNFα secretion by a test compound in Peripheral Blood Mononuclear Cells (PBMC), which in turn correlates with SIK inhibition.
PBMCs are isolated from human blood samples (buffy coats). The buffy coat is aseptically transferred into a 50 mL Falcon™ tube, and diluted 1/2 in Phosphate Buffered Saline (PBS). […] The tubes are centrifuged for 35 min at 400× g in temperature controlled centrifuge, without brake, at 25° C. PBMCs are aspirated from the white interface layer between sample and Lymphoprep. PBMCs are washed five times in PBS. […] The PBMCs are finally seeded at 400,000 PBMC/160 μL/96-well.
A compound dilution plate is made in 100% DMSO by 3-fold dilution of 10 mM stock solution of test compound. An intermediate dilution plate (10× final concentration) is made by diluting the compound dilution plate 50-fold in RPMI medium.
20 μL of the 10× final concentration compound is added to the cells and incubated for 1 hour at 37° C. before addition of trigger. No trigger conditions/trigger conditions are spiked with equal final DMSO concentrations of 0.2% DMSO. 20 μL of 10×LPS (final concentration 1 ng/mL) solution are added to all wells except for the ‘no trigger wells’ where 20 μL medium is added. Supernatant is collected after 18-20 h for IL-10 and TNFα determination using ELISA.
The plate is then washed once with PBST (PBS+0.05% Tween20) and once with PBS followed by the addition of 100 μL of blocking buffer (1% Bovine Serum Albumin (BSA)-5% Sucrose) and plates are sealed and incubated for at least 4 h at RT. After washing the plate once with PBST and once with PBS, 40 μL of standard or sample are added (TNFα standard curve is prepared using a 1/2 serial dilution starting from 16000 pg/mL; dilutions are made in dilution buffer (PBS+1% BSA)). Plates are washed twice with PBST, and once with PBS, after which 35 μL of the detection antibody is added (final concentration 0.25 μg/mL diluted in dilution buffer) and plates are incubated for at least 2 h at RT. Plates are washed twice with PBST, and once with PBS, where after 35 μL of Strep-HRP conjugate (0.5 μg/mL final concentration diluted in dilution buffer) is added. Plates are incubated in the dark, at RT for at least 45 min but no longer than 1 hour. Plates are washed twice with PBST, and once with PBS. Thereafter, 50 μL of luminol substrate is added to each well (prepared according to manufacturer's instructions), and incubated for 5 min at RT protected from light.
To measure the inhibition of LPS induced TNFα, percentage inhibition (PIN) values are calculated for all concentrations tested, compared to controls.
PIN values are plotted in concentration-response and EC50 values are derived using GraphPad Prism Software, applying 4-parameter nonlinear regression (sigmoidal) curve fitting.

[2] = tested on: LPS-induced TNFα secretion in monocyte-derived macrophages (MdM); assay: MdM assay: LPS-triggered TNFα (ELISA); format: cell-based, human; conditions: Homo sapiens, Macrophage, LPS-triggered TNFα inhibition
Procedure, shortened: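 TNFα ELISA read on supernatants harvested 20 h after LPS (final 200 ng/mL) stimulation. Cells were day-10 macrophages derived from human blood CD14+ monocytes, exposed to 3-fold compound dilutions for 1 h at 37 °C beforehand, with DMSO held at 0.2%.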

[3] = tested on: LPS triggered IL-10 secretion in monocyte-derived macrophages (MdM); assay: MdM assay: LPS-triggered IL-10 (ELISA); format: cell-based, human; conditions: maximal fold change vs LPS only, median across assays
Procedure, shortened: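 Readout is IL-10FCmax, the median across at least two runs of the highest fold change over LPS-only, from ELISA absorbance at 450 nm of 2 h supernatants. Macrophages came from day-10 cultures of human CD14+ monocytes, were given compound for 1 h at 37° C in 0.2% DMSO, then 200 ng/mL LPS.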

[4] = 33P radioactive SIK kinase assay, AMARA peptide, 10 μM ATP, read-out: SIK1 IC50

T1 sequence (P57059 whole entry): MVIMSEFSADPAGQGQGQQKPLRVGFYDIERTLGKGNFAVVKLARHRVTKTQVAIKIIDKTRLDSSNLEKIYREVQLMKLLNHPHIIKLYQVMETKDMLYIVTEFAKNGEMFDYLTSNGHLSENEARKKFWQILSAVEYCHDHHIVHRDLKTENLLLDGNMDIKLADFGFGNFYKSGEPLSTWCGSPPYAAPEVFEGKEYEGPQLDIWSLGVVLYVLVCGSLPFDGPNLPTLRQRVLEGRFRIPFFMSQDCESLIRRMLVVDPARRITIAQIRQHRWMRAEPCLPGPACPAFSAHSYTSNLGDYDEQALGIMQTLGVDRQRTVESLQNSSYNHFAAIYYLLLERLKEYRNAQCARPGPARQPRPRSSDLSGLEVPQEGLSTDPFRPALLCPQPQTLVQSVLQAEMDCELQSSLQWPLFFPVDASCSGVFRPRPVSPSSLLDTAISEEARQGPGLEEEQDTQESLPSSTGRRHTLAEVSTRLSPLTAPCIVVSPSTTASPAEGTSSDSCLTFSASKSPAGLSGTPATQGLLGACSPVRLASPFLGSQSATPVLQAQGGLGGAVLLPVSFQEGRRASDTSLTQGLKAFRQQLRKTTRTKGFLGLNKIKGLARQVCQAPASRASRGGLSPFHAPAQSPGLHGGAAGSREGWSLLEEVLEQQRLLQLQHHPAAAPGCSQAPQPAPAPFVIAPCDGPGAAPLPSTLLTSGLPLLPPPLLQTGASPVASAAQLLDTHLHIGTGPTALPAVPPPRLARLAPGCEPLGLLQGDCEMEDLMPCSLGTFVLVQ

## COCCn1cc(-c2ccc3c(c2)ncn3-c2cc(OC)c(C(=O)NCC(F)(F)F)c(OC)c2)cn1 [compound 84, 2,6-dimethoxy-4-[5-[1-(2-methoxyethyl)pyrazol-4-yl]benzimidazol-1-yl]-N-(2,2,2-trifluoroethyl)benzamide]
SIK1; [4]
  IC50: 10 to 100 nM
SIK2
  IC50: 0.01 to 10 nM
SIK3
  IC50: 0.01 to 10 nM
[1]
  EC50: 0.1 to 100 nM
[2]
  EC50: 0.1 to 100 nM
[3]
  IL-10 FCmax median: ++ (>1.5-4.5)

## COc1cc(-c2cnc3cc(-c4cnn(C)c4)cnn23)cc(OC)c1C(=O)NC1CC1 [compound 112, N-cyclopropyl-2,6-dimethoxy-4-[7-(1-methylpyrazol-4-yl)imidazo[1,2-b]pvridazin-3-yl]benzamide]
SIK1; [4]
  IC50: 0.01 to 10 nM
SIK2
  IC50: 0.01 to 10 nM
SIK3
  IC50: 0.01 to 10 nM
[1]
  EC50: 0.1 to 100 nM
[2]
  EC50: 0.1 to 100 nM
[3]
  IL-10 FCmax median: + (≤1.5)

## COc1cc(-c2cnc3cc(-c4cnn(C)c4)ccn23)cc(OC)c1C(=O)N[C@@H](C)C(F)(F)F [compound 132, 2,6-dimethoxy-4-[7-(1-methylpyrazol-4-yl)imidazo[1,2-a]pyridin-3-yl]-N-[(1S)-2,2,2-trifluoro-1-methyl-ethyl]benzamide]
SIK1; [4]
  IC50: 10 to 100 nM
SIK2
  IC50: 10 to 100 nM
SIK3
  IC50: 10 to 100 nM
[1]
  EC50: 100 to 1000 nM
[2]
  EC50: 100 to 1000 nM
[3]
  IL-10 FCmax median: + (≤1.5)

## CCNC(=O)c1c(OC)cc(-c2cnc3cc(-c4cc(C)no4)ccn23)cc1OC(F)F [compound 123, 2-(difluoromethoxy)-N-ethyl-6-methoxy-4-[7-(3-methylisoxazol-5-yl)imidazo[1,2-a]pyridin-3-yl]benzamide]
SIK1; [4]
  IC50: 10 to 100 nM
SIK2
  IC50: 0.01 to 10 nM
SIK3
  IC50: 0.01 to 10 nM
[1]
  EC50: 0.1 to 100 nM
[2]
  EC50: 0.1 to 100 nM
[3]
  IL-10 FCmax median: ++ (>1.5-4.5)

## COc1cc(-n2cnc3cc(-c4cc(C)n[nH]4)ccc32)cc(OC)c1C(=O)NCC(F)(F)F [compound 101, 2,6-dimethoxy-4-[5-(3-methyl-1H-pyrazol-5-yl)benzimidazol-1-yl]-N-(2,2,2-trifluoroethyl)benzamide]
SIK1; [4]
  IC50: 10 to 100 nM
SIK2
  IC50: 0.01 to 10 nM
SIK3
  IC50: 0.01 to 10 nM
[1]
  EC50: 0.1 to 100 nM
[2]
  EC50: 0.1 to 100 nM

## COc1cc(-n2cnc3cc(-c4cnn(CCN5CCOCC5)c4)ccc32)cc(OC(F)F)c1C(=O)NC1CC1 [compound 56, N-cyclopropyl-2-(difluoromethoxy)-6-methoxy-4-[5-[1-(2-morpholinoethyl)pyrazol-4-yl]benzimidazol-1-yl]benzamide]
SIK1; [4]
  IC50: 0.01 to 10 nM
SIK2
  IC50: 0.01 to 10 nM
SIK3
  IC50: 0.01 to 10 nM
[1]
  EC50: 0.1 to 100 nM
[2]
  EC50: 0.1 to 100 nM
[3]
  IL-10 FCmax median: ++ (>1.5-4.5)

## COc1cc(-n2cnc3cc(-c4cnn(C)c4)ccc32)cc(OC)c1C(=O)NCC(F)F [compound 78, N-(2,2-difluoroethyl)-2,6-dimethoxy-4-[5-(1-methylpyrazol-4-yl)benzimidazol-1-yl]benzamide]
SIK1; [4]
  IC50: 10 to 100 nM
SIK2
  IC50: 0.01 to 10 nM
SIK3
  IC50: 0.01 to 10 nM
[1]
  EC50: 0.1 to 100 nM
[2]
  EC50: 100 to 1000 nM
[3]
  IL-10 FCmax median: ++ (>1.5-4.5)

## CCNC(=O)c1c(OC)cc(-c2cnc3cc(-c4cn(C)cn4)ccn23)cc1OC(F)F [compound 178, 2-(difluoromethoxy)-N-ethyl-6-methoxy-4-[7-(1-methylimidazol-4-yl)imidazo[1,2-a]pyridin-3-yl]benzamide]
SIK1; [4]
  IC50: 10 to 100 nM
SIK2
  IC50: 0.01 to 10 nM
SIK3
  IC50: 0.01 to 10 nM
[1]
  EC50: 0.1 to 100 nM
[2]
  EC50: 0.1 to 100 nM
[3]
  IL-10 FCmax median: ++ (>1.5-4.5)

## COc1cc(-n2cnc3cc(-c4cnn(C)c4)ccc32)cc(OC)c1C(=O)NCC(F)(F)F [Cpd 25, 2,6-dimethoxy-4-[5-(1-methylpyrazol-4-yl)benzimidazol-1-yl]-N-(2,2,2-trifluoroethyl)benzamide]
SIK1; [4]
  IC50: 10 to 100 nM
SIK2
  IC50: 0.01 to 10 nM
SIK3
  IC50: 0.01 to 10 nM
[1]
  EC50: 0.1 to 100 nM
[2]
  EC50: 0.1 to 100 nM
[3]
  IL-10 FCmax median: ++ (>1.5-4.5)

## COc1cc(-n2cnc3cc(-c4cnn(C)c4)ccc32)cc(OC)c1C(=O)N1CC(C)(C)C1 [compound 179, [2,6-dimcthoxy-4-[5-(1-methylpyrazol-4-yl)benzimidazol-1-yl]phenyl]-(3,3-dimethylazetidin-1-yl)methanone]
SIK1; [4]
  IC50: 10 to 100 nM
SIK2
  IC50: 10 to 100 nM
SIK3
  IC50: 10 to 100 nM
[1]
  EC50: 100 to 1000 nM
[2]
  EC50: 100 to 1000 nM

## COc1cc(-n2cnc3cc(-c4cnn(C5CN(CC#N)C5)c4)ccc32)cc(OC)c1C(=O)NCC(F)(F)F [Cpd 100, 4-[5-[1-[1-(cyanomethyl)azetidin-3-yl]pyrazol-4-yl]benzimidazol-1-yl]-2,6-dimethoxy-N-(2,2,2-trifluoroethyl)benzamide]
SIK1; [4]
  IC50: 10 to 100 nM
SIK2
  IC50: 0.01 to 10 nM
SIK3
  IC50: 0.01 to 10 nM
[1]
  EC50: 0.1 to 100 nM
[2]
  EC50: 100 to 1000 nM

## CCNC(=O)c1c(OC)cc(-c2cnn3cc(-c4cnn(C)c4)ccc23)cc1OC(F)F [compound 117, 2-(difluoromethoxy)-N-ethyl-6-methoxy-4-[6-(1-methylpyrazol-4-yl)pyrazolo[1,5-a]pyridin-3-yl]benzamide]
SIK1; [4]
  IC50: 0.01 to 10 nM
SIK2
  IC50: 0.01 to 10 nM
SIK3
  IC50: 0.01 to 10 nM
[1]
  EC50: 0.1 to 100 nM
[2]
  EC50: 0.1 to 100 nM

## COc1cc(-n2cnc3cc(-c4cnn(CC(C)C)c4)ccc32)cc(OC)c1C(=O)NCC(F)(F)F [Cpd 110, 4-[5-(1-isobutylpyrazol-4-yl)benzimidazol-1-yl]-2,6-dimethoxy-N-(2,2,2-trifluoroethyl)benzamide]
SIK1; [4]
  IC50: 10 to 100 nM
SIK2
  IC50: 0.01 to 10 nM
SIK3
  IC50: 0.01 to 10 nM
[1]
  EC50: 0.1 to 100 nM
[2]
  EC50: 100 to 1000 nM

## COc1cc(-n2cnc3cc(-c4cnn(C5CNC5)c4)ccc32)cc(OC)c1C(=O)NCC(F)(F)F [Cpd 94, 4-[5-[1-(azetidin-3-yl)pyrazol-4-yl]benzimidazol-1-yl]-2,6-dimethoxy-N-(2,2,2-trifluoroethyl)benzamide]
SIK1; [4]
  IC50: 0.01 to 10 nM
SIK2
  IC50: 0.01 to 10 nM
SIK3
  IC50: 0.01 to 10 nM
[1]
  EC50: 0.1 to 100 nM
[2]
  EC50: 100 to 1000 nM

## COc1cc(-c2cnc3cc(-c4cnn(C)c4)cnn23)cc(OC)c1C(=O)NCC(F)(F)F [compound 107]
SIK1; [4]
  IC50: 10 to 100 nM
SIK2
  IC50: 0.01 to 10 nM
SIK3
  IC50: 0.01 to 10 nM
[1]
  EC50: 0.1 to 100 nM
[2]
  EC50: 100 to 1000 nM

## CCCn1cc(-c2ccc3c(c2)ncn3-c2cc(OC)c(C(=O)NCC(F)(F)F)c(OC)c2)cn1 [compound 103, 2,6-dimethoxy-4-[5-(1-propylpyrazol-4-yl)benzimidazol-1-yl]-N-(2,2,2-trifluoroethyl)benzamide]
SIK1; [4]
  IC50: 0.01 to 10 nM
SIK2
  IC50: 0.01 to 10 nM
SIK3
  IC50: 0.01 to 10 nM
[1]
  EC50: 0.1 to 100 nM
[2]
  EC50: 0.1 to 100 nM

## COc1cc(-n2cnc3cc(-c4cc(C)no4)ccc32)cc(OC)c1C(=O)NCC(F)(F)F [compound 109, 2.6-dimethoxy-4-[5-(3-methylisoxazol-5-yl)benzimidazol-1-yl]-N-(2,2,2-trifluoroethyl)benzamide]
SIK1; [4]
  IC50: 10 to 100 nM
SIK2
  IC50: 10 to 100 nM
SIK3
  IC50: 10 to 100 nM
[1]
  EC50: 100 to 1000 nM
[2]
  EC50: 100 to 1000 nM

## COc1cc(-n2cnc3cc(-c4cnn(C(C)C)c4)ccc32)cc(OC)c1C(=O)NCC(F)(F)F [compound 95, 4-[5-(1-isopropylpyrazol-4-yl)benzimidazol-1-yl]-2,6-dimethoxy-N-(2,2,2-trifluoroethyl)benzamide]
SIK1
  IC50: 10 to 100 nM
SIK2
  IC50: 0.01 to 10 nM
SIK3
  IC50: 0.01 to 10 nM
[1]
  EC50: 0.1 to 100 nM
[2]
  EC50: 0.1 to 100 nM
